Results published in PMC5218480 (PLoS ONE, 2017).

Tested on: MV-4-11 cells
Experiment: Gene expression microarray analysis (Affymetrix PrimeView) and GSEA
Format: cell-based, human
Design: RFU PODN (11730768_x_at) / Fold change /veh PODN (11730768_x_at) / RFU LINC00158 (11744669_a_at) / Fold change /veh LINC00158 (11744669_a_at) / RFU DUSP10 (11751237_a_at) / Fold change /veh DUSP10 (11751237_a_at) / RFU ID3 (11757404_x_at) / Fold change /veh ID3 (11757404_x_at) / RFU PLEKHG5 (11737974_s_at) / Fold change /veh PLEKHG5 (11737974_s_at) / RFU LRRC4B (11730491_at) / Fold change /veh LRRC4B (11730491_at) / RFU GIMAP4 (11747438_a_at) / Fold change /veh GIMAP4 (11747438_a_at) / RFU KRT8 (11758183_x_at) / Fold change /veh KRT8 (11758183_x_at) / RFU CNN1 (11734310_a_at) / Fold change /veh CNN1 (11734310_a_at) / RFU VPS37D (11726825_at) / Fold change /veh VPS37D (11726825_at) / RFU C10orf10 (11716522_x_at) / Fold change /veh C10orf10 (11716522_x_at) / RFU KIR2DL2 /// KIR2DL4 /// KIR2DL5A /// KIR2DL5B /// KIR2DS1 /// KIR2DS2 /// KIR2DS3 /// KIR2DS4 /// KIR3DL3 /// KIR3DL3 /// KIR3DS1 (11738374_at) / Fold change /veh KIR2DL2 /// KIR2DL4 /// KIR2DL5A /// KIR2DL5B /// KIR2DS1 /// KIR2DS2 /// KIR2DS3 /// KIR2DS4 /// KIR3DL3 /// KIR3DL3 /// KIR3DS1 (11738374_at) / RFU C1QL1 (11718748_at) / Fold change /veh C1QL1 (11718748_at) / RFU TMPRSS4 (11747572_a_at) / Fold change /veh TMPRSS4 (11747572_a_at) / RFU HAMP (11756126_x_at) / Fold change /veh HAMP (11756126_x_at) / RFU RNFT2 (11725882_a_at) / Fold change /veh RNFT2 (11725882_a_at) / RFU NR4A2 (11747474_a_at) / Fold change /veh NR4A2 (11747474_a_at) / RFU ABCC12 (11746883_a_at) / Fold change /veh ABCC12 (11746883_a_at) / RFU TMEM136 (11760407_x_at) / Fold change /veh TMEM136 (11760407_x_at) / RFU CLDN22 /// WWC2 (11732394_at) / Fold change /veh CLDN22 /// WWC2 (11732394_at) / RFU HLA-DPB1 (11760878_x_at) / Fold change /veh HLA-DPB1 (11760878_x_at) / RFU SPINT1 (11716480_a_at) / Fold change /veh SPINT1 (11716480_a_at) / RFU GAP43 (11754022_s_at) / Fold change /veh GAP43 (11754022_s_at) / RFU A4GNT (11735810_at) / Fold change /veh A4GNT (11735810_at) / RFU PRB3 (11715151_x_at) / Fold change /veh PRB3 (11715151_x_at) / RFU TUBB4B (11761932_at) / Fold change /veh TUBB4B (11761932_at) / RFU CAPN14 (11732068_a_at) / Fold change /veh CAPN14 (11732068_a_at) / RFU TMCC2 (11721928_a_at) / Fold change /veh TMCC2 (11721928_a_at) / RFU IRGQ (11745062_a_at) / Fold change /veh IRGQ (11745062_a_at) / RFU FAM174B (11720279_a_at) / Fold change /veh FAM174B (11720279_a_at) / RFU TMPRSS4 (11748680_a_at) / Fold change /veh TMPRSS4 (11748680_a_at) / RFU FAM212B (11763350_a_at) / Fold change /veh FAM212B (11763350_a_at) / RFU PLEKHG5 (11743358_a_at) / Fold change /veh PLEKHG5 (11743358_a_at) / RFU ZSCAN30 (11745921_a_at) / Fold change /veh ZSCAN30 (11745921_a_at) / RFU CMKLR1 (11741424_a_at) / Fold change /veh CMKLR1 (11741424_a_at) / RFU LOC101060620 /// MAPK8IP1 (11723275_at) / Fold change /veh LOC101060620 /// MAPK8IP1 (11723275_at) / RFU SPTSSB (11747773_x_at) / Fold change /veh SPTSSB (11747773_x_at) / RFU PRSS12 (11739890_at) / Fold change /veh PRSS12 (11739890_at) / RFU BIN1 (11741810_x_at) / Fold change /veh BIN1 (11741810_x_at) / RFU WNT11 (11732464_a_at) / Fold change /veh WNT11 (11732464_a_at) / RFU C10orf10 (11716521_a_at) / Fold change /veh C10orf10 (11716521_a_at) / RFU C5orf56 (11738089_at) / Fold change /veh C5orf56 (11738089_at) / RFU CYB561 (11721691_x_at) / Fold change /veh CYB561 (11721691_x_at) / RFU ANKRD19P (11752326_a_at) / Fold change /veh ANKRD19P (11752326_a_at) / RFU OR2T12 /// OR2T33 /// OR2T8 (11738714_s_at) / Fold change /veh OR2T12 /// OR2T33 /// OR2T8 (11738714_s_at) / RFU VCAN (11748164_a_at) / Fold change /veh VCAN (11748164_a_at) / RFU JSRP1 (11732532_at) / Fold change /veh JSRP1 (11732532_at) / RFU KRTAP10-11 (11738290_x_at) / Fold change /veh KRTAP10-11 (11738290_x_at) / RFU MYO3A (11730013_a_at) / Fold change /veh MYO3A (11730013_a_at) / RFU EBF3 (11725865_a_at) / Fold change /veh EBF3 (11725865_a_at) / RFU CAMK2N1 (11719241_x_at) / Fold change /veh CAMK2N1 (11719241_x_at) / RFU C5orf56 (11738088_a_at) / Fold change /veh C5orf56 (11738088_a_at) / RFU OLFML3 (11715873_a_at) / Fold change /veh OLFML3 (11715873_a_at) / RFU LOC100653217 /// NTM (11731650_a_at) / Fold change /veh LOC100653217 /// NTM (11731650_a_at) / RFU MAPK11 (11762145_a_at) / Fold change /veh MAPK11 (11762145_a_at) / RFU FIZ1 (11724087_x_at) / Fold change /veh FIZ1 (11724087_x_at) / RFU OASL (11726364_x_at) / Fold change /veh OASL (11726364_x_at) / RFU SOX15 (11748057_x_at) / Fold change /veh SOX15 (11748057_x_at) / RFU CD79A (11719716_a_at) / Fold change /veh CD79A (11719716_a_at) / RFU HIST1H1D (11736915_at) / Fold change /veh HIST1H1D (11736915_at) / RFU CASKIN2 (11723855_a_at) / Fold change /veh CASKIN2 (11723855_a_at) / RFU LOC730098 (11760151_x_at) / Fold change /veh LOC730098 (11760151_x_at) / RFU OR4N2 (11742367_at) / Fold change /veh OR4N2 (11742367_at) / RFU PRRT2 (11749266_a_at) / Fold change /veh PRRT2 (11749266_a_at) / RFU SNX32 (11753110_a_at) / Fold change /veh SNX32 (11753110_a_at) / RFU CDHR5 (11726645_a_at) / Fold change /veh CDHR5 (11726645_a_at) / RFU RCAN1 (11760418_a_at) / Fold change /veh RCAN1 (11760418_a_at) / RFU FAM167A (11723789_a_at) / Fold change /veh FAM167A (11723789_a_at) / RFU FAM26E (11764081_at) / Fold change /veh FAM26E (11764081_at) / RFU ISYNA1 (11749810_s_at) / Fold change /veh ISYNA1 (11749810_s_at) / RFU ACY1 (11761880_at) / Fold change /veh ACY1 (11761880_at) / RFU 11764098_at / Fold change /veh 11764098_at / RFU SAMD14 (11745864_x_at) / Fold change /veh SAMD14 (11745864_x_at) / RFU NPB (11741838_a_at) / Fold change /veh NPB (11741838_a_at) / RFU TMPRSS6 (11731388_a_at) / Fold change /veh TMPRSS6 (11731388_a_at) / RFU KRTAP10-2 (11738614_at) / Fold change /veh KRTAP10-2 (11738614_at) / RFU ARHGAP8 /// PRR5-ARHGAP8 (11727945_x_at) / Fold change /veh ARHGAP8 /// PRR5-ARHGAP8 (11727945_x_at) / RFU KRTAP5-7 /// NADSYN1 (11734609_at) / Fold change /veh KRTAP5-7 /// NADSYN1 (11734609_at) / RFU RASL12 (11751679_a_at) / Fold change /veh RASL12 (11751679_a_at) / RFU CDKN2B (11736163_a_at) / Fold change /veh CDKN2B (11736163_a_at) / RFU PRF1 (11729649_at) / Fold change /veh PRF1 (11729649_at) / RFU, ZNF638 /// ZNF638-IT1 / Fold change vs veh, ZNF638 /// ZNF638-IT1 / RFU, PANK3 / Fold change vs veh, PANK3 / RFU, SH3YL1 / Fold change vs veh, SH3YL1 / RFU, ZEB2 / Fold change vs veh, ZEB2 / RFU, NRIP1 / Fold change vs veh, NRIP1 / RFU, PTTG1IP / Fold change vs veh, PTTG1IP / RFU, CAPN2 / Fold change vs veh, CAPN2 / RFU, MED14 / Fold change vs veh, MED14 / RFU, SNORA58 / Fold change vs veh, SNORA58 / RFU, C1orf63 / Fold change vs veh, C1orf63 / RFU, LRRFIP1 / Fold change vs veh, LRRFIP1 / RFU, NDUFAF7 / Fold change vs veh, NDUFAF7 / RFU, SLC12A2 / Fold change vs veh, SLC12A2 / RFU, IBTK / Fold change vs veh, IBTK / RFU, ESF1 / Fold change vs veh, ESF1 / Fold change vs veh, TMEM50B / RFU, TAOK1 / Fold change vs veh, TAOK1 / RFU, ACBD3 / Fold change vs veh, ACBD3 / RFU, TMA16 / Fold change vs veh, TMA16 / RFU, RWDD3 / Fold change vs veh, RWDD3 / RFU, BCAT1 / Fold change vs veh, BCAT1 / RFU, EDEM3 / Fold change vs veh, EDEM3 / RFU, TMEM33 / Fold change vs veh, TMEM33 / RFU, WDR75 / Fold change vs veh, WDR75 / RFU, AHCTF1 / Fold change vs veh, AHCTF1 / RFU, TFRC / Fold change vs veh, TFRC / RFU, ZDHHC17 / Fold change vs veh, ZDHHC17 / RFU, NOM1 / Fold change vs veh, NOM1 / RFU, ARL8B / Fold change vs veh, ARL8B / RFU, ZBTB11 / Fold change vs veh, ZBTB11 / RFU, TAMM41 / Fold change vs veh, TAMM41 / RFU, KIAA1704 /// LOC100996395 / Fold change vs veh, KIAA1704 /// LOC100996395 / RFU, ING1 / Fold change vs veh, ING1 / RFU, TRMT61B / Fold change vs veh, TRMT61B / RFU, FUBP3 / Fold change vs veh, FUBP3 / RFU, TP53 / Fold change vs veh, TP53 / RFU, TNKS2 / Fold change vs veh, TNKS2 / RFU, ZFP14 / Fold change vs veh, ZFP14 / RFU, ACTR2 / Fold change vs veh, ACTR2 / RFU, PPP3R1 / Fold change vs veh, PPP3R1 / RFU, PIK3R1 / Fold change vs veh, PIK3R1 / RFU, HNRNPA1 / Fold change vs veh, HNRNPA1 / RFU, RNF170 / Fold change vs veh, RNF170 / RFU, ZNF28 / Fold change vs veh, ZNF28 / RFU, RNGTT / Fold change vs veh, RNGTT / RFU, OGT / Fold change vs veh, OGT / RFU, BRD1 / Fold change vs veh, BRD1 / RFU, MARS / Fold change vs veh, MARS / RFU, ZNF655 / Fold change vs veh, ZNF655 / RFU, FAHD1 / Fold change vs veh, FAHD1 / RFU, BDP1 / Fold change vs veh, BDP1 / RFU, LRRCC1 / Fold change vs veh, LRRCC1 / RFU, ARID1A / Fold change vs veh, ARID1A / RFU, ZNF146 / Fold change vs veh, ZNF146 / RFU, ZNF330 / Fold change vs veh, ZNF330 / RFU, GPN3 / Fold change vs veh, GPN3 / RFU, C9orf123 / Fold change vs veh, C9orf123 / RFU, N4BP2L2 / Fold change vs veh, N4BP2L2 / RFU, ARFIP1 / Fold change vs veh, ARFIP1 / RFU, FAM179B / Fold change vs veh, FAM179B / RFU, BCL10 / Fold change vs veh, BCL10 / RFU, UHRF1BP1L / Fold change vs veh, UHRF1BP1L / RFU, BET1 / Fold change vs veh, BET1 / RFU, CNOT2 / Fold change vs veh, CNOT2 / RFU, ZNF268 / Fold change vs veh, ZNF268 / Fold change vs veh, ZNF507 / RFU, DGCR2 / Fold change vs veh, DGCR2 / RFU, WDSUB1 / Fold change vs veh, WDSUB1 / Fold change vs veh, HSP90B1 /// MIR3652 / RFU, ADSS / Fold change vs veh, ADSS / RFU, GK / Fold change vs veh, GK / RFU, ZNF148 / Fold change vs veh, ZNF148 / RFU, TAF9 / Fold change vs veh, TAF9 / RFU, SLC1A5 / Fold change vs veh, SLC1A5 / RFU, SLMO2 / Fold change vs veh, SLMO2 / RFU, ABCC4 / Fold change vs veh, ABCC4 / RFU, LOC101060439 /// RAP1B / Fold change vs veh, LOC101060439 /// RAP1B / RFU, RFX7 / Fold change vs veh, RFX7 / RFU, GTPBP10 / Fold change vs veh, GTPBP10 / RFU, CNEP1R1 / Fold change vs veh, CNEP1R1 / RFU, BIVM-ERCC5 /// ERCC5 / Fold change vs veh, BIVM-ERCC5 /// ERCC5 / RFU, ILF3 / Fold change vs veh, ILF3 / RFU 11762660_at / Fold change /veh 11762660_at / RFU VCAN (11757783_s_at) / Fold change /veh VCAN (11757783_s_at) / RFU DDX43 (11728927_at) / Fold change /veh DDX43 (11728927_at) / RFU KRT8 (11758188_x_at) / Fold change /veh KRT8 (11758188_x_at) / RFU NKD1 (11759106_at) / Fold change /veh NKD1 (11759106_at) / RFU SRD5A1 (11742802_a_at) / Fold change /veh SRD5A1 (11742802_a_at) / RFU TPSAB1 /// TPSB2 (11721975_s_at) / Fold change /veh TPSAB1 /// TPSB2 (11721975_s_at) / RFU GSTM3 (11746129_a_at) / Fold change /veh GSTM3 (11746129_a_at) / RFU IL23R (11737362_x_at) / Fold change /veh IL23R (11737362_x_at) / RFU TMEM51 (11727254_a_at) / Fold change /veh TMEM51 (11727254_a_at) / RFU PIWIL2 (11732686_x_at) / Fold change /veh PIWIL2 (11732686_x_at) / RFU ORM1 (11744905_x_at) / Fold change /veh ORM1 (11744905_x_at) / RFU CCDC152 (11743942_at) / Fold change /veh CCDC152 (11743942_at) / RFU ECM1 (11717891_a_at) / Fold change /veh ECM1 (11717891_a_at) / RFU IL23R (11748794_a_at) / Fold change /veh IL23R (11748794_a_at) / RFU TNFAIP8L3 (11732012_x_at) / Fold change /veh TNFAIP8L3 (11732012_x_at) / RFU MBOAT4 (11741988_at) / Fold change /veh MBOAT4 (11741988_at) / RFU 11764193_at / Fold change /veh 11764193_at / RFU TMEM53 (11763286_at) / Fold change /veh TMEM53 (11763286_at) / RFU MAGEB2 (11727129_at) / Fold change /veh MAGEB2 (11727129_at) / RFU TMEM200A (11744735_a_at) / Fold change /veh TMEM200A (11744735_a_at) / RFU CCDC152 (11751479_a_at) / Fold change /veh CCDC152 (11751479_a_at) / RFU FAM211A (11726209_a_at) / Fold change /veh FAM211A (11726209_a_at) / RFU RGS16 (11746705_a_at) / Fold change /veh RGS16 (11746705_a_at) / RFU VCAN (11755009_s_at) / Fold change /veh VCAN (11755009_s_at) / RFU RHOB (11743442_s_at) / Fold change /veh RHOB (11743442_s_at) / RFU RGS16 (11720943_a_at) / Fold change /veh RGS16 (11720943_a_at) / RFU RGS16 (11720944_at) / Fold change /veh RGS16 (11720944_at) / RFU, VPS4B / Fold change vs veh, VPS4B / RFU, CREB1 / Fold change vs veh, CREB1 / RFU, DNAJC13 / Fold change vs veh, DNAJC13 / RFU, GNAQ / Fold change vs veh, GNAQ / RFU, CDK5R1 / Fold change vs veh, CDK5R1 / RFU, ZRANB3 / Fold change vs veh, ZRANB3 / RFU, CUL4A / Fold change vs veh, CUL4A / RFU, CCNY / Fold change vs veh, CCNY / RFU, UFL1 / Fold change vs veh, UFL1 / RFU, COG3 / Fold change vs veh, COG3 / RFU, DIAPH2 / Fold change vs veh, DIAPH2 / RFU, SKA2 / Fold change vs veh, SKA2 / RFU, AFF3 / Fold change vs veh, AFF3 / RFU, LMF1 / Fold change vs veh, LMF1 / RFU, IPO11 / Fold change vs veh, IPO11 / RFU, DFFB / Fold change vs veh, DFFB / RFU, FOXP1 / Fold change vs veh, FOXP1 / RFU, CARD8 / Fold change vs veh, CARD8 / RFU, STRN3 / Fold change vs veh, STRN3 / RFU, ADK / Fold change vs veh, ADK / RFU, RASSF2 / Fold change vs veh, RASSF2 / RFU, WIPF1 / Fold change vs veh, WIPF1 / RFU, LARP1B / Fold change vs veh, LARP1B / RFU, RASA1 / Fold change vs veh, RASA1 / RFU, RB1 / Fold change vs veh, RB1 / RFU, PPFIA1 / Fold change vs veh, PPFIA1 / RFU, MAT2A / Fold change vs veh, MAT2A / RFU, CCT5 / Fold change vs veh, CCT5 / RFU, WDR92 / Fold change vs veh, WDR92 / RFU, CUX1 / Fold change vs veh, CUX1 / RFU, TTC7A / Fold change vs veh, TTC7A / RFU, TMEM135 / Fold change vs veh, TMEM135 / RFU, DEPTOR / Fold change vs veh, DEPTOR / RFU, CPM / Fold change vs veh, CPM / RFU, DNAJB6 / Fold change vs veh, DNAJB6 / RFU, CACNA2D3 / Fold change vs veh, CACNA2D3 / RFU, DTX4 / Fold change vs veh, DTX4 / RFU, TFCP2 / Fold change vs veh, TFCP2 / RFU, GMCL1 /// GMCL1P1 / Fold change vs veh, GMCL1 /// GMCL1P1 / RFU, AEBP2 / Fold change vs veh, AEBP2 / RFU, SNHG1 /// SNORD22 /// SNORD25 /// SNORD26 /// SNORD27 /// SNORD28 /// SNORD29 /// SNORD31 / Fold change vs veh, SNHG1 /// SNORD22 /// SNORD25 /// SNORD26 /// SNORD27 /// SNORD28 /// SNORD29 /// SNORD31 / Fold change (Aza/veh), C12orf56 (ProbeSet 11735607_a_at) / Fold change (ACY-1035/veh), C12orf56 (ProbeSet 11735607_a_at) / Fold change (Aza/veh), FGFR1OP (ProbeSet 11751329_s_at) / Fold change (ACY-1035/veh), FGFR1OP (ProbeSet 11751329_s_at) / Fold change (Aza/veh), VPS36 (ProbeSet 11739960_a_at) / Fold change (ACY-1035/veh), VPS36 (ProbeSet 11739960_a_at) / RFU SYPL1 (11715823_x_at) / Fold change /veh SYPL1 (11715823_x_at) / RFU IGFBP7 (11715501_s_at) / Fold change /veh IGFBP7 (11715501_s_at) / RFU REEP3 (11722064_at) / Fold change /veh REEP3 (11722064_at) / RFU IGLL1 (11728026_x_at) / Fold change /veh IGLL1 (11728026_x_at): dose or concentration left out as unconfirmed
Details: MV-4-11 cells, 48 hours

Nc1ncn([C@@H]2O[C@H](CO)[C@@H](O)[C@H]2O)c(=O)n1 [azacitidine]
Fold change /veh JSRP1 (11732532_at): 1.00
